Where two headings read alike, the source gives them in different places.
How the values were obtained:
[1] = Pharmacokinetic experiment in rats; type: in vivo, Sprague-Dawley rats; conditions: rat; for AUC(0-t) / Cmax / Tmax / half-life / AUC(0-inf) / MRT inf: male, Sprague-Dawley, plasma; for AUC(0-inf): read-out: AUCINF_pred; for MRT inf: read-out: MRTINF_pred; for F: PO 10 mg/kg vs IV 3 mg/kg
Procedure: Six male Sprague-Dawley rats, 7 to 8 weeks old, weighing approximately 210 g, were divided into 2 groups with 3 rats in each group. The pharmacokinetic differences of the compounds were compared after they were administered to the rats at a single dose through vein (in vein 3 mg/kg) or mouth (orally 10 mg/kg).
The rats were fed with standard feed and water, and fasted 16 hours before the experiment. The drugs were dissolved with PEG400 and dimethyl sulfoxide. The blood samples were collected from eyelids at the time point of 0.083, 0.25, 0.5, 1, 2, 4, 6, 8, 12 and 24 hours after administration.
The rats were anesthetized for a short time after inhaling ether, and 300 μL of blood samples was collected from the eyelids and put into test tubes, which contains 30 μL of 1% heparin salt solution. The test tubes were dried overnight at 60° C. prior to use. After the blood sample collection at the last time point, the rats were sacrificed after the ether anesthesia.
Immediately after the collection of the blood samples, the test tubes were gently inverted at least 5 times to ensure the fully mixing and placed on ice. The blood samples were centrifuged at 4° C., 5000 rpm for 5 minutes to separate the plasma from the red blood cells. 100 μL of plasma was pipetted into a clean plastic centrifuge tube, with the name of the compound and time point on it. The plasma was stored at −80° C. before analysis, and LC-MS/MS was used to determine the concentration of the compounds disclosed herein in plasma. Pharmacokinetic parameters were calculated based on the plasma concentrations of each animal at different time points.

MV-4-11 cells = experiment: Inhibition of cell MV-4-11 proliferation (CTG assay); type: cell-based; conditions: Homo sapiens, MV4-11, 72 hours
Excerpt: (§1) Cell MV-4-11 (ATCC, Cat. No. CRL-9591), cell MOLM-13 (COBIOER, Cat. No. CBP60678), RPMI-1640 (GIBCO, Cat. No. A10491-01), penicillin-streptomycin (GIBCO, Cat. No. 15140-122), fetal bovine serum (GIBCO, Cat. No. 10099-141), phosphate buffer solution PBS (GIBCO, Cat. No. 10010-031), DMSO (Sigma, Cat. No. D8418-1L), CelltiterGlo Assay kit (CTG) (Promega, Cat. No. G7573), 96-well plate with transparent flat bottom and black walls (PerkinElmer, Cat. No. 6005680-50), plate shaker (QILINBEIER, Cat. No. B-9002), centrifuge (Eppendorf, Cat. No. 5804R), CO2 incubator (Thermo Scientific, Cat. No. 371), microscope (OLYMPUS Cat. No. CKX41), multi-plate reader (PerkinElmer, Cat. No. EnVision).
(§2) (2) Preparation of Cell Suspension • a) The medium was collected from the culture bottle and centrifuged at 1000 rpm for 5 min. • b) The supernatant was discarded, and the cells were resuspended in medium containing 10% fetal bovine serum, and counted to prepare a cell suspension (cell viability was greater than 90%). • c) The cell suspension was added into a 96-well plate, with […] in each well, namely 5000 MV-4-11 cells/well; 5000 MOLM-13 cells/well. • d) The cell plate was cultured overnight in a 37° C., 5% CO2 incubator.
(§3) Dilution of Compounds in DMSO: • a) MV-4-11 cells: The compounds were diluted with DMSO from 10 mM to 60 uM, and then subjected to a 3-fold serial gradient dilution in DMSO from 60 uM, resulting in 9 concentrations. • b) MOLM-13 cells: The compounds were diluted with DMSO from 10 mM to 200 uM, and then subjected to a 3-fold serial gradient dilution in DMSO from 200 uM, resulting in 9 concentrations. • c) Compound Taxol was diluted with DMSO from 10 mM to 200 uM, and then subjected to a 3-fold serial gradient dilution in DMSO from 200 uM, resulting in 9 concentrations.
(§4) (4) Treatment of Cells with Compounds (after the Overnight Incubation of the Cell Plate) • a) Each well was replenished with 99 μl of growth medium containing 10% FBS, and then 1 μl of the diluted compound was added to the well. The concentration of DMSO was 0.5%. • b) Concentrations of the tested compounds were: MV-4-11 cells: 300, 100, 33.3, 11.1, 3.7, 1.23, 0.41, 0.137, 0.046, 0 [nM]. • MOLM-13 cells: 1000, 333.3, 111.1, 37.04, 12.35, 4.1, 1.37, 0.46, 0.15, 0 [nM]. • c) Concentrations of control compound Taxol were: 1000, 333.3, 111.1, 37.04, 12.35, 4.12, 1.37, 0.46, 0.15, 0 [nM]. • d) The cell plate was placed in the incubator for 72 hours.
(§5) (5) CTG Assay • a) The test plate was placed at room temperature and equilibrated for 30 minutes, and 60 μl of the culture medium was discarded. • b) 60 μl of CTG reagent (CelltiterGlo kit) was added, and the plate was placed on a rapid plate shaker to shake for 2 min, and then let it stand at room temperature for 20 min. • c) Envision was used to read the values.
(§6) IC50 values were calculated using GraphPad Prism 6 software. The IC50 (half inhibitory concentration) values of the compounds were obtained by the following non-linear fitting formula. Y=Bottom+(Top−Bottom)/(1+10^((Log IC50−X)*HillSlope)) • X: Log value of the compound concentration • Y: Inhibition rate (% inhibition) % inhibition (inhibition rate)=100*(value of the High Control-value of the test compound well)/(value of the High Control-value of the Low Control)

MOLM-13 cells = experiment: Inhibition of cell MOLM-13 proliferation (CTG assay); type: cell-based; conditions: Homo sapiens, 72 hours, read-out: MOLM-1 IC50
Excerpt: as §1, §2, §3, §4, §5, §6

Row | SMILES | AUC(0-t) ([1]; IV 3 mg/kg) [ng·h/mL] | Cmax ([1]; IV 3 mg/kg) [ng/mL] | Tmax ([1]; IV 3 mg/kg) [h] | half-life ([1]; IV 3 mg/kg) [h] | AUC(0-inf) ([1]; IV 3 mg/kg) [ng·h/mL] | MRT inf ([1]; IV 3 mg/kg) [h] | AUC(0-t) ([1]; PO 10 mg/kg) [ng·h/mL] | Cmax ([1]; PO 10 mg/kg) [ng/mL] | Tmax ([1]; PO 10 mg/kg) [h] | half-life ([1]; PO 10 mg/kg) [h] | AUC(0-inf) ([1]; PO 10 mg/kg) [ng·h/mL] | MRT inf ([1]; PO 10 mg/kg) [h] | Vz_pred ([1]; IV 3 mg/kg) [L/kg] | Vz_pred ([1]; PO 10 mg/kg) [L/kg] | F [1] [%] | IC50 (MV-4-11 cells) [nM] | IC50 (MOLM-13 cells) [nM]
1 | [2H]C([2H])([2H])Oc1cc(Nc2nc(NC3CCOCC3)c(CC)nc2C(N)=O)ccc1N1CCC(N2CCN(C)CC2)CC1 [Compound T-1, 6-ethyl-3-((3-(methoxy-d3)-4-(4-(4-methylpiperazin-1-yl)piperidin-1-yl)phenyl)amino)-5-((tetrahydro-2H-pyran-4-yl)amino)pyrazine-2-carboxamide] | 556 | 138 | 0.08 | 3.59 | 572 | 4.2 | 510 | 48.4 | 5.33 | 5.93 | 578 | 7.89 | 28.80 | 162.8 | 27.52 | 2.17 | 15
2 | [2H]C([2H])([2H])Oc1cc(Nc2nc(NC3CCOCC3)c(CC)nc2C(N)=O)ccc1N1CCC(N2CCN(C([2H])([2H])[2H])CC2)CC1 [Compound T-3, 6-ethyl-3-((3-(methoxy-d3)-4-(4-(4-(methyl-d3)piperazin-1-yl)piperidin-1-yl)phenyl)amino)-5-((tetrahydro-2H-pyran-4-yl)amino)pyrazine-2-carboxamide] | – | – | – | – | – | – | – | – | – | – | – | – | – | – | – | 2.25 | 14.2
3 | [2H]C([2H])([2H])N1CCN(C2CCN(c3ccc(Nc4nc(NC5CCOCC5)c(C([2H])([2H])C([2H])([2H])[2H])nc4C(N)=O)cc3OC)CC2)CC1 [Compound T-5, 6-(ethyl-d5)-3-((3-methoxy-4-(4-(4-(methyl-d3)piperazin-1-yl)piperidin-1-yl)phenyl)amino)-5-((tetrahydro-2H-pyran-4-yl)amino)pyrazine-2-carboxamide] | – | – | – | – | – | – | – | – | – | – | – | – | – | – | – | 2.01 | 12

Other lines, results leading:

Row | AUC(0-t) ([1]; IV 3 mg/kg) [ng·h/mL] | Cmax ([1]; IV 3 mg/kg) [ng/mL] | Tmax ([1]; IV 3 mg/kg) [h] | half-life ([1]; IV 3 mg/kg) [h] | AUC(0-inf) ([1]; IV 3 mg/kg) [ng·h/mL] | MRT inf ([1]; IV 3 mg/kg) [h] | AUC(0-t) ([1]; PO 10 mg/kg) [ng·h/mL] | Cmax ([1]; PO 10 mg/kg) [ng/mL] | Tmax ([1]; PO 10 mg/kg) [h] | half-life ([1]; PO 10 mg/kg) [h] | AUC(0-inf) ([1]; PO 10 mg/kg) [ng·h/mL] | MRT inf ([1]; PO 10 mg/kg) [h] | Vz_pred ([1]; IV 3 mg/kg) [L/kg] | Vz_pred ([1]; PO 10 mg/kg) [L/kg] | F [1] [%] | IC50 (MV-4-11 cells) [nM] | IC50 (MOLM-13 cells) [nM] | SMILES
4 | – | – | – | – | – | – | – | – | – | – | – | – | – | – | – | 2.35 | 14.3 | [2H]C([2H])([2H])N1CCN(C2CCN(c3ccc(Nc4nc(NC5CCOCC5)c(CC)nc4C(N)=O)cc3OC)CC2)CC1 [Compound T-2, 6-ethyl-3-((3-methoxy-4-(4-(4-(methyl-d3)piperazin-1-yl)piperidin-1-yl)phenyl)amino)-5-((tetrahydro-2H-pyran-4-yl)amino)pyrazine-2-carboxamide]
5 | – | – | – | – | – | – | – | – | – | – | – | – | – | – | – | 2.17 | – | [2H]C1([2H])N(C)C([2H])([2H])C([2H])([2H])N(C2CCN(c3ccc(Nc4nc(NC5CCOCC5)c(CC)nc4C(N)=O)cc3OC)CC2)C1([2H])[2H] [Compound T-8, 6-ethyl-3-((3-methoxy-4-(4-(4-methylpiperazin-1-yl-2,2,3,3,5,5,6,6-d8)piperidin-1-yl)phenyl)amino)-5-((tetrahydro-2H-pyran-4-yl)amino)pyrazine-2-carboxamide]
6 | – | – | – | – | – | – | – | – | – | – | – | – | – | – | – | 2.03 | 14.5 | [2H]C([2H])([2H])N1C([2H])([2H])C([2H])([2H])N(C2CCN(c3ccc(Nc4nc(NC5CCOCC5)c(CC)nc4C(N)=O)cc3OC)CC2)C([2H])([2H])C1([2H])[2H] [Compound T-9, 6-ethyl-3-((3-methoxy-4-(4-(4-(methyl-d3)piperazin-1-yl-2,2,3,3,5,5,6,6-d8)piperidin-1-yl)phenyl)amino)-5-((tetrahydro-2H-pyran-4-yl)amino)pyrazine-2-carboxamide]
7 | 449 | 196 | 0.08 | 4.08 | 509 | 3.44 | 317 | 34.6 | 8 | 5.76 | 435 | 7.46 | 34.89 | 212.0 | 21.15 | 2.23 | 14.3 | CCc1nc(C(N)=O)c(Nc2ccc(N3CCC(N4CCN(C)CC4)CC3)c(OC)c2)nc1NC1CCOCC1 [Gilteritinib, 6-ethyl-3-((3-methoxy-4-(4-(4-methylpiperazin-1-yl)piperidin-1-yl)phenyl)amino)-5-((tetrahydro-2H-pyran-4-yl)amino)pyrazine-2-carboxamide, reference compound]
